Laboratory results taken from ChEMBL document CHEMBL1134190, “Synthesis of substituted 4(Z)-(methoxyimino)pentyl-1-piperidines as dual NK1/NK2 inhibitors” (Bioorg Med Chem Lett, 2001).

Tests used:
Substance-K receptor = target: T1, Substance-K receptor (Homo sapiens, UniProt P21452); assay: Binding affinity towards NK2 receptor
T1 sequence (P21452 whole entry): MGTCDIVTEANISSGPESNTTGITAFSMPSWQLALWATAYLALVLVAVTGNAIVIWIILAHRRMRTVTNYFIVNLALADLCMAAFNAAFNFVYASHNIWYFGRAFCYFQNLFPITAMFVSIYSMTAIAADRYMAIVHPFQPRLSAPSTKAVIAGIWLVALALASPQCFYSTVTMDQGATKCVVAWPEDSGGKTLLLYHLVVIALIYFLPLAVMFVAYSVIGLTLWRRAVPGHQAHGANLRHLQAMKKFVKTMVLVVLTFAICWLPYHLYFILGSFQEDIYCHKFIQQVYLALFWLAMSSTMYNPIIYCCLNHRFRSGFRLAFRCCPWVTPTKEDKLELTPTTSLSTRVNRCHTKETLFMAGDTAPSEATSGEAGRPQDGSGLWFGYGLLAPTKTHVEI

Substance-P receptor = Substance-P receptor (Homo sapiens, UniProt P25103); assay: Binding affinity towards NK1 receptor
Sequence of Substance-P receptor (P25103 whole entry): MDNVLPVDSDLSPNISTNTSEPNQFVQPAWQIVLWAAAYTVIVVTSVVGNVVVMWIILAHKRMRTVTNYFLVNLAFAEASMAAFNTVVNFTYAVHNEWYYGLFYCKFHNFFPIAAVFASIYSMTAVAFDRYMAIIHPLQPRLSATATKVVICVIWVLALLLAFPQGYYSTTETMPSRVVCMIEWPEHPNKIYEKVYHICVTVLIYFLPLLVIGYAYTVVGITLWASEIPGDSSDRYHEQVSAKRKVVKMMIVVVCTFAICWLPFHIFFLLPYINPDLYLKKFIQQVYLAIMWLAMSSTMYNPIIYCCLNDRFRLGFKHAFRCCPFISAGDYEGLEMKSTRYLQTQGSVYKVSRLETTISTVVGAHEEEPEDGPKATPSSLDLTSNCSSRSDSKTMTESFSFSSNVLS

Ki (Substance-K receptor) [µM] | Ki (Substance-P receptor) [µM] | SMILES
0.026 | 0.014 | CO/N=C(\COCc1cc(C(F)(F)F)cc(C(F)(F)F)c1)C(CCN1CCC(CN2CCCC(CC3CC3)C2=O)CC1)c1ccc(Cl)c(Cl)c1 (stereo not drawn)
0.016 | 0.007 | CO/N=C(\COCc1cc(C(F)(F)F)cc(C(F)(F)F)c1)C(CCN1CCC(CN2CCCC(CC(O)CO)C2=O)CC1)c1ccc(Cl)c(Cl)c1 (stereo not drawn)
0.033 | 0.017 | CO/N=C(\COCc1cc(C(F)(F)F)cc(C(F)(F)F)c1)C(CCN1CCC(CN2CCCC(OC(=O)NC(C)C)C2)CC1)c1ccc(Cl)c(Cl)c1 (stereo not drawn)
0.039 | 0.014 | CO/N=C(\COCc1cc(C(F)(F)F)cc(C(F)(F)F)c1)C(CCN1CCC(CN2CCOCC2)CC1)c1ccc(Cl)c(Cl)c1 (stereo not drawn)
0.058 | 0.013 | C=CCC1CCCN(CC2CCN(CCC(/C(COCc3cc(C(F)(F)F)cc(C(F)(F)F)c3)=N/OC)c3ccc(Cl)c(Cl)c3)CC2)C1=O (stereo not drawn)
0.023 | 0.02 | CO/N=C(\COCc1cc(C(F)(F)F)cc(C(F)(F)F)c1)C(CCN1CCC(CN2CCCCC2=S)CC1)c1ccc(Cl)c(Cl)c1 (stereo not drawn)
0.004 | 0.018 | CO/N=C(\COCc1cc(C(F)(F)F)cc(C(F)(F)F)c1)C(CCN1CCC(N2CCCCC2=O)CC1)c1ccc(Cl)c(Cl)c1 (stereo not drawn)
0.02 | 0.117 | CCOC(=O)C1CCCN(C2CCN(CCC(/C(COCc3cc(C(F)(F)F)cc(C(F)(F)F)c3)=N/OC)c3ccc(Cl)c(Cl)c3)CC2)C1 (stereo not drawn)
0.028 | 0.016 | CCOC(=O)C1CCCN(CC2CCN(CCC(/C(COCc3cc(C(F)(F)F)cc(C(F)(F)F)c3)=N/OC)c3ccc(Cl)c(Cl)c3)CC2)C1 (stereo not drawn)
0.195 | 0.036 | CO/N=C(\COCc1cc(C(F)(F)F)cc(C(F)(F)F)c1)C(CCN1CCC(N2CCCC2)CC1)c1ccc(Cl)c(Cl)c1 (stereo not drawn)
0.039 | 0.05 | CO/N=C(\COCc1cc(C(F)(F)F)cc(C(F)(F)F)c1)C(CCN1CCC(CN2CCCC(CO)C2)CC1)c1ccc(Cl)c(Cl)c1 (stereo not drawn)
0.014 | 0.013 | CO/N=C(\COCc1cc(C(F)(F)F)cc(C(F)(F)F)c1)C(CCN1CCC(CN2CCCCC2CCO)CC1)c1ccc(Cl)c(Cl)c1 (stereo not drawn)
0.091 | 0.069 | CO/N=C(\COCc1cc(C(F)(F)F)cc(C(F)(F)F)c1)C(CCN1CCC(CN2CCCC(Cc3ccccc3)C2=O)CC1)c1ccc(Cl)c(Cl)c1 (stereo not drawn)
0.015 | 0.014 | CO/N=C(\COCc1cc(C(F)(F)F)cc(C(F)(F)F)c1)C(CCN1CCC(N2CCCCC2CO)CC1)c1ccc(Cl)c(Cl)c1 (stereo not drawn)
0.016 | 0.004 | CO/N=C(\COCc1cc(C(F)(F)F)cc(C(F)(F)F)c1)C(CCN1CCC(N2CCC(O)C2)CC1)c1ccc(Cl)c(Cl)c1 (stereo not drawn)
0.146 | 0.044 | CO/N=C(\COCc1cc(C(F)(F)F)cc(C(F)(F)F)c1)C(CCN1CCC(NC(=O)C2CCCCC2)CC1)c1ccc(Cl)c(Cl)c1 (stereo not drawn)

Ki (Substance-K receptor) [µM] | Ki (Substance-P receptor) [µM] | SMILES
0.144 | 0.018 | CO/N=C(\COCc1cc(C(F)(F)F)cc(C(F)(F)F)c1)C(CCN1CCC(NC(=O)c2ccccc2)CC1)c1ccc(Cl)c(Cl)c1 (stereo not drawn)
0.137 | 0.112 | CO/N=C(\COCc1cc(C(F)(F)F)cc(C(F)(F)F)c1)C(CCN1CCC(CNC(=O)c2ccccc2)CC1)c1ccc(Cl)c(Cl)c1 (stereo not drawn)
0.016 | 0.024 | CO/N=C(\COCc1cc(C(F)(F)F)cc(C(F)(F)F)c1)C(CCN1CCC(CNC2(CO)CCCC2)CC1)c1ccc(Cl)c(Cl)c1 (stereo not drawn)
0.007 | 0.009 | CO/N=C(\COCc1cc(C(F)(F)F)cc(C(F)(F)F)c1)C(CCN1CCC(N2CCCC2=O)CC1)c1ccc(Cl)c(Cl)c1 (stereo not drawn)
0.067 | 0.019 | CO/N=C(\COCc1cc(C(F)(F)F)cc(C(F)(F)F)c1)C(CCN1CCC(N2CCC(OC(=O)NC(C)C)C2)CC1)c1ccc(Cl)c(Cl)c1 (stereo not drawn)
0.047 | 0.038 | CO/N=C(\COCc1cc(C(F)(F)F)cc(C(F)(F)F)c1)C(CCN1CCC(CN2CCCC(O)C2)CC1)c1ccc(Cl)c(Cl)c1 (stereo not drawn)
0.026 | 0.036 | CO/N=C(\COCc1cc(C(F)(F)F)cc(C(F)(F)F)c1)C(CCN1CCC(CN2CCCCC2)CC1)c1ccc(Cl)c(Cl)c1 (stereo not drawn)
0.011 | 0.013 | CO/N=C(\COCc1cc(C(F)(F)F)cc(C(F)(F)F)c1)C(CCN1CCC(N2CCCC(C(N)=O)C2)CC1)c1ccc(Cl)c(Cl)c1 (stereo not drawn)
0.059 | 0.006 | CO/N=C(\COCc1cc(C(F)(F)F)cc(C(F)(F)F)c1)C(CCN1CCC(C(=O)N2CCCC2)CC1)c1ccc(Cl)c(Cl)c1 (stereo not drawn)
0.021 | 0.008 | CO/N=C(\COCc1cc(C(F)(F)F)cc(C(F)(F)F)c1)C(CCN1CCC(CN2CCCC2=O)CC1)c1ccc(Cl)c(Cl)c1 (stereo not drawn)
0.012 | 0.01 | CO/N=C(\COCc1cc(C(F)(F)F)cc(C(F)(F)F)c1)C(CCN1CCC(CN2CCCCC2=O)CC1)c1ccc(Cl)c(Cl)c1 (stereo not drawn)
0.023 | 0.016 | CO/N=C(\COCc1cc(C(F)(F)F)cc(C(F)(F)F)c1)C(CCN1CCC(N2CCCC2=S)CC1)c1ccc(Cl)c(Cl)c1 (stereo not drawn)
0.053 | 0.02 | CO/N=C(\COCc1cc(C(F)(F)F)cc(C(F)(F)F)c1)C(CCN1CCC(CN2CCCCC2CO)CC1)c1ccc(Cl)c(Cl)c1 (stereo not drawn)
0.011 | 0.013 | CO/N=C(\COCc1cc(C(F)(F)F)cc(C(F)(F)F)c1)C(CCN1CCC(N2CCC[C@H]2C(N)=O)CC1)c1ccc(Cl)c(Cl)c1 (stereo partly drawn)
0.067 |  | CO/N=C(\COCc1cc(C(F)(F)F)cc(C(F)(F)F)c1)C(CCN1CCC(C(N)=O)CC1)c1ccc(Cl)c(Cl)c1 (stereo not drawn)
0.027 | 0.025 | CO/N=C(\COCc1cc(C(F)(F)F)cc(C(F)(F)F)c1)C(CCN1CCC(CN2CCCC(C(N)=O)C2)CC1)c1ccc(Cl)c(Cl)c1 (stereo not drawn)
